Key:
[1] = biological target: T1, ALDH7A1 (Homo sapiens, UniProt P49419); assay: X-ray crystal structure, co-crystallization; assay type: binding; details: 175 mM PA, pH 7.2, 1.88 Å; aldehyde substrate site
T1 sequence (P49419 1-511 isoform P49419-2): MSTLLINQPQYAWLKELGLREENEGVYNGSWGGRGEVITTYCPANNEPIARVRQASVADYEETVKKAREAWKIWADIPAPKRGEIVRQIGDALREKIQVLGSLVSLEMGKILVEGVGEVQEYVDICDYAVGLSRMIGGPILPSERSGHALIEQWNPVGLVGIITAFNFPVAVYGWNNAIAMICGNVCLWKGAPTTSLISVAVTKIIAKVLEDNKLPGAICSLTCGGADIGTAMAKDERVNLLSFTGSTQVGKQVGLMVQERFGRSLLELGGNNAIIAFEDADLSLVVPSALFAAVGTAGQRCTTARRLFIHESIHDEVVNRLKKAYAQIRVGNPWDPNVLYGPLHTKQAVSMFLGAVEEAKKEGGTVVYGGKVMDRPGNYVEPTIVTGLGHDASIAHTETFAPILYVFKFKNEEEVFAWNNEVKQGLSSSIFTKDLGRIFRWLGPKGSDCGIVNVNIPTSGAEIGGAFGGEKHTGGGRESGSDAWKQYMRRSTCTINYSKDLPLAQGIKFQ

[2] = biological target: T1, ALDH7A1; assay: X-ray crystal structure, co-crystallization; assay type: binding; details: 15 mM NAD+, pH 6.8, 1.85 Å; Rossmann fold cofactor site

Row | SMILES | X-ray crystal structure, co-crystallization [1] | X-ray crystal structure, co-crystallization [2]
1 | O=C(O)[C@@H]1CCCCN1 [PA, L-pipecolic acid] | we obtained a structure of W175A complexed with the P6C analog L-pipecolic acid (PA) | –
2 | NC(=O)c1ccc[n+]([C@@H]2O[C@H](COP(=O)(O)OP(=O)(O)OC[C@H]3O[C@@H](n4cnc5c(N)ncnc54)[C@H](O)[C@@H]3O)[C@@H](O)[C@H]2O)c1 [NAD^+] | – | The structures of W175G and W175A complexed with NAD^+ were determined
